# In publication PMC9271048, “Probing strigolactone perception mechanisms with rationally designed small-molecule agonists stimulating germination of root parasitic weeds” (Nature Communications, 2022):
# Like-named read-outs stand apart in the source and are kept apart here.
# Key:
# ShHTL7 [1] = biological target: T1, ShHTL7 (Striga hermonthica, UniProt A0A0M3PNA2); test: biochemical; format: binding
# Procedure, shortened: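 Surface plasmon resonance was run at 25 °C on ShHTL7 immobilized by amine coupling, using phosphate-buffered saline with 0.05% P20 and 0.5% DMSO. Each injection had 1 min association and 1 min dissociation, with a 50 μM screen followed by concentration series. KD was derived by kinetic analysis or steady-state affinity.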
# ShHTL7 [2] = biological target: T1, ShHTL7; test: Competitive inhibition of ShHTL7 with Yoshimulactone Green (YLG) as substrate; format: biochemical
# Procedure, shortened: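 YLG hydrolysis by ShHTL7 followed by fluorescence (ex 480/em 520 nm) every 1 min for 30 min; compounds and YLG from fresh DMSO stocks. After subtracting no-enzyme background, the linear 8-min increase was used; IC50 fitted from relative inhibition versus compound concentration.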
# [3] = Chemical reactivity analysis (HPLC, methanol/PBS pH 7.4); format: physicochemical
# Experimental: Chemical reactivity is an important factor in the bioactivity of natural and synthetic SLs.
# One hundred twenty microliters of sample solution was added to a solution of PBS (10 mM, pH 7.4, 810 μL) and methanol (270 μL). The solution was stirred vigorously for 30 s and then transferred to HPLC vial, and the vial was stored at 26 ± 1 °C. […] The analytical column was Extend-C18 (4.6 mm × 150 mm × 5 μm). The mobile phases were CH3CN and H2O (containing 0.1% HCO2H), VCH3CN:VH2O = 50:50, with a flow rate of 1 mL/min, and an injection volume of 5 μL. The percentage of remaining compounds in the solution was calculated from the peak area. The half-life times (t1/2) of samples were calculated.
# [4] = system: ShHTLs (10 HTL proteins in S. hermonthica); test: YLG-based competition assay on HTL proteins of S. hermonthica; format: biochemical, Striga hermonthica; conditions: Supplementary Fig. 27
# Excerpt: (§1) In P. aegyptiaca, 5 KAI2s have been proposed as the SL receptors for the regulation of seed germination. […] The high sequence similarity may explain the consistency of these compounds in inducing germination in both S. hermonthica and P. aegyptiaca.
# (§2) The excitation and emission wavelengths of YLG are 480 and 520 nm, respectively. We used a fluorescence spectrophotometer (CARY Eclipse) to detect the fluorescence intensity change of YLG during the enzymatic hydrolysis assay process. All the testing compounds and YLG were dissolved in DMSO and prepared as stock solutions just before use. […] The changes of fluorescence at 520 nm of each well were recorded every 1 min for 30 min. Using the reaction mixture without adding enzyme and tested compounds as the background control. After subtracting the background hydrolysis, a linear fluorescence increase in 8 min was used for further inspection. The IC50 values were determined via fitting relative inhibition percentages with the varying concentrations of compounds in Microsoft Excel.
# (§3) Supplementary Fig. 27. Binding of compounds 4a, (R)- and (S)-4a, and 4g-i to the HTL proteins in S. hermonthica and KAI2 protein homologs in P. aegyptiaca. In the competitive inhibitory activity assay, YLG (3 µM) was used as the fluorogenic substrate. Error bar indicates SD (n = 3 biologically independent experiments).
# (§4) (1 picture or pasted object on this page, not shown here)
# [5] = system: PaKAI2s (5 KAI2 protein homologs in P. aegyptiaca); test: YLG-based competition assay on KAI2 protein homologs of P. aegyptiaca; format: biochemical, Phelipanche aegyptiaca; conditions: Supplementary Fig. 27
# Excerpt: as §1, §2, §3, §4
# T1 sequence (A0A0M3PNA2 entry or part of it): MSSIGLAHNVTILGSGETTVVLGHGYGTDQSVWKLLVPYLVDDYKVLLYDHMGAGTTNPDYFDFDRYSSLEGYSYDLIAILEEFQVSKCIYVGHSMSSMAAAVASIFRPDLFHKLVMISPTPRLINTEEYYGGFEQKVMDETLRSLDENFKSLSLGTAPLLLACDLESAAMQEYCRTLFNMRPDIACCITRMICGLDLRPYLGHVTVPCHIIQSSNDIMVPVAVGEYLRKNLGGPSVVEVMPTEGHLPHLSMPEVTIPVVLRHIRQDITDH
smiles,measurement,setting,value
CC1=CC(OC(=O)N2CCN(C(=O)COc3ccc(Br)cc3C)CC2)CC1=O (stereo not drawn) [4g],Kd,ShHTL7 [1],34.8 ± 3.9 µM
same,IC50,"ShHTL7 [2]; ShHTL7, YLG competition, Supplementary Fig. 27, read-out: IC50, replicate 1",3.08 µM
same,IC50,"ShHTL7 [2]; ShHTL7, YLG competition, Supplementary Fig. 27, read-out: IC50, replicate 2",1.61 µM
same,IC50,"ShHTL7 [2]; ShHTL7, YLG competition, Supplementary Fig. 27, read-out: IC50, replicate 3",1.97 µM
same,IC50,"ShHTL7 [2]; wild-type ShHTL7, average of 3, source data of Fig. 2a,b, Supplementary Figs. 8a, 9a, 20b, read-out: IC50, competitive ShHTL7 inhibition (YLG), source data average",2.22 µM
same,reactivity in methanol/PBS,[3]; 1:3 methanol and PBS (10 mM) pH 7.4,no apparent hydrolysis was observed in 6 days
same,half-life at 0.5 mM,"[3]; methanol/phosphate-buffered saline mixture, Supplementary Fig. 10 source data, methanol/PBS pH 7.4, 26 °C, read-out: half-life time (t1/2), source data average (converted)",> 144 h
same,IC50,"[4]; ShHTL2, YLG competition, read-out: IC50, replicate 1",65.2 µM
same,IC50,"[4]; ShHTL2, YLG competition, read-out: IC50, replicate 2",66 µM
same,IC50,"[4]; ShHTL2, YLG competition, read-out: IC50, replicate 3",64.5 µM
same,IC50,"[4]; ShHTL2, average of 3 replicates, read-out: IC50, average",65.2 µM
same,IC50,"[4]; ShHTL3, YLG competition, read-out: IC50, replicate 1",40.5 µM
same,IC50,"[4]; ShHTL3, YLG competition, read-out: IC50, replicate 2",33.3 µM
same,IC50,"[4]; ShHTL3, YLG competition, read-out: IC50, replicate 3",28.5 µM
same,IC50,"[4]; ShHTL3, average of 3 replicates, read-out: IC50, average",34.1 µM
same,IC50,"[4]; ShHTL4, YLG competition, read-out: IC50, replicate 1",19.2 µM
same,IC50,"[4]; ShHTL4, YLG competition, read-out: IC50, replicate 2",17.8 µM
same,IC50,"[4]; ShHTL4, YLG competition, read-out: IC50, replicate 3",16.1 µM
same,IC50,"[4]; ShHTL4, average of 3 replicates, read-out: IC50, average",17.7 µM
same,IC50,"[4]; ShHTL5, YLG competition, read-out: IC50, replicate 1",40.1 µM
same,IC50,"[4]; ShHTL5, YLG competition, read-out: IC50, replicate 2",35.7 µM
same,IC50,"[4]; ShHTL5, YLG competition, read-out: IC50, replicate 3",41.8 µM
same,IC50,"[4]; ShHTL5, average of 3 replicates, read-out: IC50, average",39.2 µM
same,IC50,"[4]; ShHTL6, YLG competition, read-out: IC50, replicate 1",53 µM
same,IC50,"[4]; ShHTL6, YLG competition, read-out: IC50, replicate 2",37.4 µM
same,IC50,"[4]; ShHTL6, YLG competition, read-out: IC50, replicate 3",61.5 µM
same,IC50,"[4]; ShHTL6, average of 3 replicates, read-out: IC50, average",50.6 µM
same,IC50,"[4]; ShHTL8, YLG competition, read-out: IC50, replicate 1",61 µM
same,IC50,"[4]; ShHTL8, YLG competition, read-out: IC50, replicate 2",62 µM
same,IC50,"[4]; ShHTL8, YLG competition, read-out: IC50, replicate 3",51.8 µM
same,IC50,"[4]; ShHTL8, average of 3 replicates, read-out: IC50, average",58.3 µM
same,IC50,"[4]; ShHTL9, YLG competition, read-out: IC50, replicate 1",31.2 µM
same,IC50,"[4]; ShHTL9, YLG competition, read-out: IC50, replicate 2",38.7 µM
same,IC50,"[4]; ShHTL9, YLG competition, read-out: IC50, replicate 3",46.2 µM
same,IC50,"[4]; ShHTL9, average of 3 replicates, read-out: IC50, average",38.7 µM
same,IC50,"[4]; ShHTL10, YLG competition, read-out: IC50, replicate 1",49.6 µM
same,IC50,"[4]; ShHTL10, YLG competition, read-out: IC50, replicate 2",54.6 µM
same,IC50,"[4]; ShHTL10, YLG competition, read-out: IC50, replicate 3",55.2 µM
same,IC50,"[4]; ShHTL10, average of 3 replicates, read-out: IC50, average",53.1 µM
same,IC50,"[4]; ShHTL11, YLG competition, read-out: IC50, replicate 1",55.9 µM
same,IC50,"[4]; ShHTL11, YLG competition, read-out: IC50, replicate 2",54.7 µM
same,IC50,"[4]; ShHTL11, YLG competition, read-out: IC50, replicate 3",58.2 µM
same,IC50,"[4]; ShHTL11, average of 3 replicates, read-out: IC50, average",56.3 µM
same,IC50,"[5]; KAI2C, YLG competition, read-out: IC50, replicate 1",53.3 µM
same,IC50,"[5]; KAI2C, YLG competition, read-out: IC50, replicate 2",49.1 µM
same,IC50,"[5]; KAI2C, YLG competition, read-out: IC50, replicate 3",43 µM
same,IC50,"[5]; KAI2C, average of 3 replicates, read-out: IC50, average",48.5 µM
same,IC50,"[5]; KAI2d1, YLG competition, read-out: IC50, replicate 1",27.1 µM
same,IC50,"[5]; KAI2d1, YLG competition, read-out: IC50, replicate 2",24.4 µM
same,IC50,"[5]; KAI2d1, YLG competition, read-out: IC50, replicate 3",23.2 µM
same,IC50,"[5]; KAI2d1, average of 3 replicates, read-out: IC50, average",24.9 µM
same,IC50,"[5]; KAI2d2, YLG competition, read-out: IC50, replicate 1",62.3 µM
same,IC50,"[5]; KAI2d2, YLG competition, read-out: IC50, replicate 2",72.7 µM
same,IC50,"[5]; KAI2d2, YLG competition, read-out: IC50, replicate 3",74.9 µM
same,IC50,"[5]; KAI2d2, average of 3 replicates, read-out: IC50, average",70 µM
same,IC50,"[5]; KAI2d3, YLG competition, read-out: IC50, replicate 1",57.1 µM
same,IC50,"[5]; KAI2d3, YLG competition, read-out: IC50, replicate 2",36.6 µM
same,IC50,"[5]; KAI2d3, YLG competition, read-out: IC50, replicate 3",53.9 µM
same,IC50,"[5]; KAI2d3, average of 3 replicates, read-out: IC50, average",49.2 µM
same,IC50,"[5]; KAI2d4, YLG competition, read-out: IC50, replicate 1",77.3 µM
same,IC50,"[5]; KAI2d4, YLG competition, read-out: IC50, replicate 2",85.3 µM
same,IC50,"[5]; KAI2d4, YLG competition, read-out: IC50, replicate 3",76.1 µM
same,IC50,"[5]; KAI2d4, average of 3 replicates, read-out: IC50, average",79.6 µM
